Results from patent US9493472B2, “Substituted benzoxazoles” (BAYER PHARMA AKTIENGESELLSCHAFT, priority 2013, dated 2016).

Columns and labels:
New Zealand rabbits = experiment: Rabbit venous reperfusion and bleeding model (combi model rabbit); assay type: in vivo; conditions: for Increase in reperfusion (blood flow/time area): on top of tissue plasminogen activator; for Significance of increase in reperfusion: p > 0.05
Experimental: Male New Zealand rabbits having a weight of 2.8-3.4 kg are anaesthetized using an intramuscular ketamine/Rompun bole injection. The animal is then shaved at the places needed for the surgery. A continuous infusion of anaesthetic (ketamine/Rompun) is administered via the left auricular vein using an indwelling catheter. Left and right femoral vein and right femoral artery are catheterized with a polyethylene tube (PESO). The jugular vein is then carefully exposed such that the vessel is stressed and damaged as little as possible and no more fat is present at the vessel. Using a suitable apparatus for measuring flow (Powerlab, Transonic TS420 incl. flow probe head), the flow in the jugular vein is recorded (Lab Chart Software). Prior to the start of the experiment, twice 1.4 ml of citrated blood are removed from the rabbit via the femoral artery, and the basal bleeding time at the rim of the ear is determined. Once there has been a constant flow from the jugular vein for 10 min (complete regeneration of the vessel after preparation), a 2 cm section of the vein is pinched off using small vessel clamps. In a Petri dish, the citrated blood removed earlier (300 μl) is mixed with calcium chloride (0.25 M, 90 μl) and thrombin (25 U/ml, 60 μl). 180 μl of the blood/calcium chloride/thrombin mixture are quickly drawn into a 1 ml syringe and, via a 27G cannula, injected into the pinched-off segment of the vessel. The injection site is pinched off with a pair of tweezers for one minute so that no blood can escape. Two minutes after injection of the thrombus, the test substance is administered as bole and infusion via the left femoral vein catheter. 14 minutes after the thrombus injection, tissue plasminogen activator is administered as bole and infusion (Actilyse®, 20 μg/kg bole & 150 μg/kg/h infusion) at the right femoral vein. 15 minutes after thrombus injection, the stasis is opened and the flow probe head is attached. Blood flow in the vessel is recorded for 120 minutes, and the vessel is kept moist with warm 0.9% aqueous sodium chloride solution during this time. After 105 minutes of reperfusion, the ear bleeding time is determined again. At the end of the experiment, after 120 minutes of reperfusion, 1.4 ml of citrated blood are removed, the animal is sacrificed painlessly by a bole injection of 1.5 ml of T61 and the weight of the thrombus in the jugular vein is determined. The blood removed before and after the experiment is used to obtain plasma and to determine the ex vivo coagulation time.
The area obtainable with tissue plasminogen activator alone is subtracted from the area achieved using the respective substance or dosage. The resulting area is a measure of the improvement of reperfusion by the test substance (Table 4).

[1] = system: plasma (prothrombin time); experiment: Anticoagulatory activity: prothrombin time (PT) in plasma; conditions: 37° C., 3 minutes incubation, plasma species not given, in some cases means, read-out: IC50 [μM] (concentration of test substance which effects a doubling of the prothrombin time)
Experimental: The anticoagulatory activity of the test substances is determined in vitro in human plasma, rabbit plasma and rat plasma. To this end, blood is drawn off in a mixing ratio of sodium citrate/blood of 1:9 using a 0.11 molar sodium citrate solution as receiver. Immediately after the blood has been drawn off, it is mixed thoroughly and centrifuged at about 4000 g for 15 minutes. The supernatant is pipetted off.
The prothrombin time (PT, synonyms: thromboplastin time, quick test) is determined in the presence of varying concentrations of test substance or the corresponding solvent using a commercial test kit (Neoplastin® from Boehringer Mannheim or Hemoliance® RecombiPlastin from Instrumentation Laboratory). The test compounds are incubated with the plasma at 37° C. for 3 minutes. Coagulation is then started by addition of thromboplastin, and the time when coagulation occurs is determined. The concentration of test substance which effects a doubling of the prothrombin time is determined Representative activity data from this test are given in Table 3 below (in some cases as means of individual determinations): […]

thrombin [2] = biological target: T1, thrombin (Homo sapiens (Human), UniProt P00734); experiment: Measurement of the thrombin inhibition in buffer; assay type: biochemical; conditions: human thrombin 0.06 nmol/l, Tris buffer pH 7.4, 22° C.; substrate Boc-Asp(OBzl)-Pro-Arg-AMC; in some cases means
Experimental: To determine the thrombin inhibition of the substances listed above, a biochemical test system is constructed in which the conversion of a thrombin substrate is used for determining the enzymatic activity of human thrombin. Here, thrombin cleaves aminomethylcoumarin, which is measured fluorescently, from the peptic substrate. The determinations are carried out in microtitre plates.
Substances to be tested are dissolved in various concentrations in dimethyl sulphoxide and incubated for 15 min with human thrombin (0.06 nmol/l dissolved in 50 mmol/l of Tris buffer [C,C,C-tris(hydroxymethyl)aminomethane], 100 mmol/l of sodium chloride, 0.1% BSA [bovine serum albumin], pH 7.4) at 22° C. The substrate (5 μmol/l Boc-Asp(OBzl)-Pro-Arg-AMC from Bachem) is then added. After 30 min of incubation, the sample is excited at a wavelength of 360 nm and the emission is measured at 460 nm. The measured emissions of the test batches with test substance are compared to the control batches without test substance (only dimethyl sulphoxide instead of test substance in dimethyl sulphoxide) and the IC50 values are calculated from the concentration/activity relationships.

thrombin [3] = biological target: T1, thrombin; experiment: Thrombin-inhibitory activity in plasma samples (ecarin-activated); assay type: biochemical; conditions: citrate plasma, prothrombinase activated by ecarin, fluorogenic thrombin substrate; in some cases means; read-out: IC50 [nM] thrombin inhibition in plasma samples
Experimental: To determine the inhibition of thrombin in plasma samples, plasma […] is activated by ecarin. Thrombin activity and/or its inhibition by potential inhibitors is/are then measured fluorenscently by addition of a substrate.
The substances to be tested are dissolved in various concentrations in dimethyl sulphoxide and diluted with water. In white 96-well flat-bottomed plates, 20 μl of substance dilution are mixed with 20 μl of ecarin solution (ecarin reagent, from Sigma E-0504, final concentration 20 mU per reaction) in Ca buffer (200 mM Hepes+560 mM sodium chloride+10 mM calcium chloride+0.4% PEG) or with 20 μl of Ca buffer (as unstimulated control). Furthermore, 20 μl of fluorogenic thrombin substrate (from Bachem I-1120, final concentration 50 μmol/l) and 20 μl of citrate plasma (from Octapharma) are added, and the mixture is homogenized well. The plate is measured in a SpectraFluorplus Reader using a 360 nm excitation filter and a 465 nm emission filter every minute over 20 minutes.

[4] = bole 0.08 mg/kg, continuous infusion 0.09 mg/kg/h
[5] = bole 0.33 mg/kg, continuous infusion 0.43 mg/kg/h

Row | SMILES | IC50 [1] | IC50 (thrombin [2]) | IC50 (thrombin [3]) | Increase in reperfusion (blood flow/time area) (New Zealand rabbits; [4]) | Significance of increase in reperfusion (New Zealand rabbits; [4]) | Increase in reperfusion (blood flow/time area) (New Zealand rabbits; [5]) | Significance of increase in reperfusion (New Zealand rabbits; [5])
1 | O=C(NC[C@H]1CN(c2ccc(N3CCOCC3=O)cc2)C(=O)O1)c1ccc(Cl)s1 [rivaroxaban, 5-chloro-N-({(5S)-2-oxo-3-[4-(3-oxo-4-morpholinyl)-phenyl]-1,3-oxazolidin-5-yl}methyl)-2-thiophenecarboxamide, reference compound] | – | – | – | 13.0% | insignificant effect | – | –
2 | COc1cc(C(=O)N2CC(C)OC[C@H]2C)cc2nc(NC(CF)c3cccc(Cl)c3)oc12 (single isomer, unassigned) [Example 7] | 1.9 µM | 5.3 nM | 11.4 nM | – | – | – | –
3 | COc1cc(C(=O)N2CCC(O)C(C)C2)cc2nc(NC(CF)c3cccc(Cl)c3)oc12 (single isomer, unassigned) [Example 3, (2-{[1-(3-Chlorophenyl)-2-fluoroethyl]amino}-7-methoxy-1,3-benzoxazol-5-yl)(4-hydroxy-3-methylpiperidin-1-yl)methanone] | 1.8 µM | 2.4 nM | 11.6 nM | – | – | – | –

The remaining compounds from weak to strong by IC50 [1], led by results:

Row | IC50 [1] | IC50 (thrombin [2]) | IC50 (thrombin [3]) | SMILES | Increase in reperfusion (blood flow/time area) (New Zealand rabbits; [4]) | Significance of increase in reperfusion (New Zealand rabbits; [4]) | Increase in reperfusion (blood flow/time area) (New Zealand rabbits; [5]) | Significance of increase in reperfusion (New Zealand rabbits; [5])
4 | 1.5 µM | 0.1 nM | 14.7 nM | COc1cc(C(=O)N2CC(C)(CC(C)O)OC[C@H]2C)cc2nc(NC(CF)c3cccc(Cl)c3)oc12 (stereo partly drawn) [Example 12, (2-{[1-(3-Chlorophenyl)-2-fluoroethyl]amino}-7-methoxy-1,3-benzoxazol-5-yl)[(5R)-2-(2-hydroxypropyl)-2,5-dimethylmorpholin-4-yl]methanone] | – | – | – | –
5 | 1.1 µM | – | – | COc1cc(C(=O)N2CC(C)OC[C@@H]2CCO)cc2nc(NC(CF)c3cccc(Cl)c3)oc12 (single isomer, unassigned) [Example 15] | – | – | 12.2% | insignificant effect
6 | 1 µM | 0.16 nM | 4.6 nM | CCO[C@@H]1CC(CO)N(C(=O)c2cc(OC)c3oc(NC(CF)c4cccc(Cl)c4)nc3c2)C1 (single isomer, unassigned) [Example 27] | – | – | – | –
7 | 1 µM | 0.01 nM | 5.7 nM | COc1cc(C(=O)N2CC(C)(CCO)OC[C@H]2C)cc2nc(NC(CF)c3cccc(Cl)c3)oc12 (single isomer, unassigned) [Example 11] | – | – | – | –
